Consider 6 compounds from patent EP4219453A1 (Sichuan Kelun-Biotech Biopharmaceutical Co., Ltd., priority 2020, dated 2022).

In one data set the target is T1, CYP3A4 (Homo sapiens, UniProt P08684).
T1 construct: purchased Promega
As to the kind of experiment: CYP enzyme inhibition test, P450-Glo CYP3A4 Screening System. It counts as in vitro ADME. The settings on record: Luciferin-IPA 3 µM. The procedure:
Test Example 5: CYP enzyme (Cytocrome P450) inhibition test
• 1. Test system: • P450-Glo™ CYP1A2 Screening System (Promega); • P450-Glo™ CYP2D6 Screening System (Promega); • P450-Glo™ CYP3A4 Screening System (Promega). • 2. Test instrument: BMG PHERAstar FS Luminescent. • 3. Test method: The test was carried out according to the kit instructions, and the steps were as follows: 3.1. Inhibition of CYP1A2:
Test group: The test compound of different concentration was added to the microplate, Luciferin-IPA (3 µM), K3PO4 (100 mM) and CYP3A4 (2 nM) were added to each well, and pre-incubated at room temperature for 10 min, followed by an addition of the NADPH regeneration system, and reacted at room temperature for 30 min, an equal volume of detection buffer was added at last, and incubated at room temperature for 20 min, and then chemiluminescence detection was performed.
Negative control group: The experimental method was the same as that of the test group, but the test compound was not added.
Blank control group: The experimental method was the same as that of the test group, but the test compound was not added, and CYP3A4 Membrance (2 nM) was used instead of CYP3A4.
The median inhibitory concentration (IC50) or range of the compound was estimated according to the inhibition rate of CYP enzymes at different concentrations: IC50 = X × (1 - percent inhibition rate (%)) / percent inhibition rate (%), wherein X is the test concentration of the compound.

In the next data set the target is T2, CYP1A2 (Homo sapiens, UniProt P05177).
T2 construct: purchased Promega
T2 sequence (P05177 1-516): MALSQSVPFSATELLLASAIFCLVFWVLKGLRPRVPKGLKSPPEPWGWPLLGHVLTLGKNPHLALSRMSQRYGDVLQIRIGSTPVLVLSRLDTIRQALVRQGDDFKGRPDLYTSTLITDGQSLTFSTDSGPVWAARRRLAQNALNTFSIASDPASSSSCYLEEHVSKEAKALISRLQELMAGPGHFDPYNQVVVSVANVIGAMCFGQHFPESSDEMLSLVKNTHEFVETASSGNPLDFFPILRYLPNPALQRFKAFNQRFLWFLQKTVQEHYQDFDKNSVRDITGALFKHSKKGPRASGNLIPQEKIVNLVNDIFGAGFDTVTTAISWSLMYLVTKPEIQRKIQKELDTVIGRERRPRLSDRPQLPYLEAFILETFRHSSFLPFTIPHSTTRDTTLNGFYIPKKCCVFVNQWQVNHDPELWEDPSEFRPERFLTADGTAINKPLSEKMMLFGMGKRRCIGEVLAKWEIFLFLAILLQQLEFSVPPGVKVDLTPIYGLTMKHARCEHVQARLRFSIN
Description: CYP enzyme inhibition test, P450-Glo CYP1A2 Screening System. It counts as in vitro ADME. As for the experimental part:
Test Example 5: CYP enzyme (Cytocrome P450) inhibition test […] Test system: • P450-Glo™ CYP1A2 Screening System (Promega); • P450-Glo™ CYP2D6 Screening System (Promega); • P450-Glo™ CYP3A4 Screening System (Promega). • 2. Test instrument: BMG PHERAstar FS Luminescent. • 3. Test method: The test was carried out according to the kit instructions, and the steps were as follows: 3.1. Inhibition of CYP1A2: Test group: […] Negative control group: The experimental method was the same as that of the test group, but the test compound was not added. Blank control group: […] The median inhibitory concentration (IC50) or range of the compound was estimated according to the inhibition rate of CYP enzymes at different concentrations: […]

Data set [1] is described as follows: Pharmacokinetics (PK) study in Balb/c mice. The settings on record: female Balb/c mice; for F: PO 10 mg/kg compared with IV 1 mg/kg. It counts as in vivo. The procedure: Test Example 6: Pharmacokinetics (PK) study in Balb/c mice
The example compounds were administered to female Balb/c mice via intravenous injection (IV) and gastric perfusion (PO), respectively, and their pharmacokinetic properties were investigated. The administered doses for IV and PO were 1 mg/kg and 10 mg/kg, respectively. The solvent for IV was 5% DMSO + 5% Solutol (15-hydroxystearic acid polyethylene glycol ester) + 90% normal saline, the solvent for PO was 0.5% MC ([…] methylcellulose). Whole blood samples were collected at various time points after IV and PO administration, and subjected to EDTA-K2 anticoagulation before test.
Whole blood samples were processed by precipitating proteins and then subjected to LC-MS/MS analysis. The pharmacokinetic parameters were calculated by the non-compartmental model using WinNonlin 6.3 software, and the results were shown in Table 6 below. Table 6. Pharmacokinetic parameters of compounds in whole blood in mice

Another data set has as its target TGFβR2 (Homo sapiens, UniProt P37173). Description: In vitro enzymatic activity inhibition test (TGFβR2), ADP-Glo Kinase Detection Kit. It counts as biochemical. The settings on record: MBP substrate, calculated from percent inhibition at 1000nM, 100nM, 10nM. The procedure: Test Example 2: In vitro enzymatic activity inhibition test (TGFβR2).
Experimental method: According to the instructions of ADP-Glo™ Kinase Detection Kit (Promega), the inhibitory effect of the compounds of the present invention on the enzymatic activity of TGFβR2 was determined, and the steps were as follows: TGFβR2 enzyme were pre-incubated with different concentrations of test compounds (1000nM, 100nM, 10nM) at 30°C for 30 min, myelin basic protein (MBP) and adenosine triphosphate (ATP) were added to initiate the reaction. The incubation was performed at 30°C for 3 h, followed by an addition of ADP-Glo™ reagent and incubated at room temperature for 90 min, kinase detection reagent was then added. The chemiluminescence signal values were detected after incubation at room temperature for another 30 min.
When the percent inhibition was between 30% and 80%, the median inhibitory concentration (IC50) or range of the compound was calculated according to the following formula: IC50 = X × (1 - percent inhibition rate (%)) / percent inhibition rate (%), wherein X is the concentration of the compound at which the inhibition rate is between 30% and 80%.

The mark [2] stands for this setting: PO, 10 mg/kg, whole blood, listed as Example VI.
Setting [3] is: mouse, IV, 1 mg/kg, whole blood.
The mark [4] stands for this setting: mouse, IV, 1 mg/kg, whole blood, read-out: Cmax.
Where [5] appears, read: mouse, PO, 10 mg/kg, whole blood.
The mark [6] stands for this setting: mouse, PO, 10 mg/kg, whole blood, read-out: Cmax.
Where [7] appears, read: Luciferin-ME 100 µM, read-out: IC50 (µM) CYP1A2.

SMILES strings stand for the structures. Values joined by “and” are separate entries in the source; they are usually repeats but may differ in a detail not shown here. Equal values may be shown once. Read-outs that look alike come from different tables or passages of the source.

T1 sequence (P08684 whole entry): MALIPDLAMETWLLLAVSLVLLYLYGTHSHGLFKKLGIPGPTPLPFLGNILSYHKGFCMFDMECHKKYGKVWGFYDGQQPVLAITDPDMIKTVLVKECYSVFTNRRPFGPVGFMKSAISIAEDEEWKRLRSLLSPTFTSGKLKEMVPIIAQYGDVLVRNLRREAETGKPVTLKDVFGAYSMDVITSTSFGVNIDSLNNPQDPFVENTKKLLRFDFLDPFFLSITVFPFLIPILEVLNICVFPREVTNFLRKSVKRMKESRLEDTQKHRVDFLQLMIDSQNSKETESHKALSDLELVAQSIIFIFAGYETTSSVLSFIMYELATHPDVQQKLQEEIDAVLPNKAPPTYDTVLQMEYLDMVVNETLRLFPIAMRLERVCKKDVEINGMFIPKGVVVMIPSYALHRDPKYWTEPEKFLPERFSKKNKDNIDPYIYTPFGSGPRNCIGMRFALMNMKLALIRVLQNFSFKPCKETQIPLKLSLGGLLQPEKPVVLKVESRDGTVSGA
TGFβR2, sequence (P37173 23-567): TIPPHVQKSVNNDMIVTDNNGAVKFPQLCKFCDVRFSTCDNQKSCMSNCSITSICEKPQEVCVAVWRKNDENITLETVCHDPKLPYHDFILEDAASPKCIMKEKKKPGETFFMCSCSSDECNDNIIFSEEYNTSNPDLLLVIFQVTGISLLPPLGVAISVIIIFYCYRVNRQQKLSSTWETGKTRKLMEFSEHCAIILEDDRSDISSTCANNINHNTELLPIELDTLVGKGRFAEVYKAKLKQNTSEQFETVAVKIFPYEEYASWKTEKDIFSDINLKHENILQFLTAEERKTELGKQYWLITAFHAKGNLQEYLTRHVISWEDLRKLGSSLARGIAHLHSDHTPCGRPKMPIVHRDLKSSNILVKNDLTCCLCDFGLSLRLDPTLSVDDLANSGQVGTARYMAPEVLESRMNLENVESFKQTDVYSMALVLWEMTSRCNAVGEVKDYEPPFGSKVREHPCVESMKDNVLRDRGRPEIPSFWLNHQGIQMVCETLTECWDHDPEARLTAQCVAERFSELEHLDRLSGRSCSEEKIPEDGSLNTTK

Turning to `Cc1cccc(-n2nc3c(c2-c2ccn4nccc4c2)CCC3)n1` [Example 4, 5-[2-(6-methylpyridin-2-yl)-2,4,5,6-tetrahydrocyclopenteno [c]pyrazol-3-yl]pyrazolo[1,5-a]pyridine], the IC50 at CYP3A4 and against CYP1A2 was more than 10 µM each time.

Turning to `Cc1cccc(-n2nc3c(c2-c2ccn4ncc(C(N)=O)c4c2)CCC3)n1` [Example 6, 5-[2-(6-methylpyridin-2-yl)-2,4,5,6-tetrahydrocyclopenteno[c]pyrazol-3-yl]pyrazolo[1,5-a]pyridine-3-carboxamide], the IC50 (commonly the concentration that inhibits the measured activity by half) was more than 10 µM at CYP3A4 (30 min) and more than 10 µM at CYP1A2 (Luciferin-ME 100 µM, 30 min, read-out: IC50 (µM) CYP1A2). Moreover, the AUClast is 578 ng·h/mL and 578 ± 4 ng·h/mL in data set [1] (IV, 1 mg/kg, whole blood); 3586 ± 563 ng·h/mL in data set [1] (PO, 10 mg/kg, whole blood); 3586 ng·h/mL in data set [1] (setting [2]). Moreover, the Cl in data set [1] (IV, 1 mg/kg, whole blood) is 28.4 mL/min/kg and 28.4 ± 0.3 mL/min/kg. Further, the Cmax (in general, the highest concentration seen after dosing) in data set [1] (IV, 1 mg/kg, whole blood) is 1163 ng/mL and 1163 ± 58 ng/mL; in data set [1] (PO, 10 mg/kg, whole blood), 7440 ± 226 ng/mL; in data set [1] (setting [2]), 7440 ng/mL. Further, the F in data set [1] came to 61.4±9.5%; in data set [1] (listed as Example VI) it was 61.4%. The T1/2 in data set [1] (PO, 10 mg/kg, whole blood) worked out at 27.6 ± 11.4 min; in data set [1] (setting [2]) it was 27.6 min.

With `CNc1cc(-c2ccn3ncc(C(N)=O)c3c2)n(-c2cccc(C)n2)n1` [Example 8, 5-(3-(methylamino)-1-(6-methylpyridin-2-yl)-1H-pyrazol-5-yl)pyrazolo[1,5-a]pyridine-3-carboxamide], the IC50 at CYP3A4 was more than 10 µM; on TGFβR2, more than 1000 nM; at CYP1A2 (setting [7]) it was more than 10 µM. In data set [1], the F was 98.1% and 98.1±15.0%. In data set [1] (PO, 10 mg/kg, whole blood), this compound yielded a T1/2 of 108 ± 21 min. In addition, the AUC(0-t) (in general, the area under the concentration-time curve up to a stated or last time point) in data set [1] (setting [3]) was 458 ng·h/mL; in data set [1] (setting [5]) it was 4360 ng·h/mL. The clearance (in general, a measure of how efficiently the substance is removed, as volume per time) in data set [1] (setting [3]) turned out to be 35 mL/min/kg. The results for the Cmax in data set [1] (setting [4]) and in data set [1] (setting [6]) were 917 ng/mL and 6270 ng/mL, respectively. Besides, the half-life (as a rule, the time needed for the level to fall by half in the phase considered) in data set [1] (setting [5]) is 108 min.

`Cc1cccc(-n2nc(NC(C)c3ccc(F)cc3)cc2-c2ccn3ncc(C(N)=O)c3c2)n1` (stereo not shown) [Example 10, 5-(3-(1-(4-fluorophenyl)ethylamino)-1-(6-methylpyridin-2-yl)-1H-pyrazol-5-yl)pyridino[1,5-a]pyridine-3-carboxamide]: the IC50 against CYP3A4 was more than 10 µM; on TGFβR2, more than 1000 nM; against CYP1A2 it was more than 10 µM.

Regarding `Cc1cccc(-n2nc(NCc3ccc(F)cc3)cc2-c2ccn3ncc(C(N)=O)c3c2)n1` [Example 11, 5-(3-(4-fluorobenzylamino)-1-(6-methylpyridin-2-yl)-1H-pyrazol-5-yl)pyrazolo[1,5-a]pyridine-3-carboxamide], the IC50 at CYP3A4 is more than 10 µM; on TGFβR2 it was 593 ± 129 nM; at CYP1A2 (setting [7]), more than 10 µM.

Regarding `Cc1cccc(-n2nccc2-c2ccn3ncc(C(N)=O)c3c2)n1` [Example 12, 5-(1-(6-methylpyridin-2-yl)-1H-pyrazol-5-yl)pyrazolo[1,5-a]pyridine-3-carboxamide], the IC50 against CYP3A4 is more than 10 µM; at TGFβR2, more than 1000 nM; at CYP1A2 (setting [7]) it was more than 10 µM. For the same compound, the F in data set [1] is 52.1% and 52.1±2.6%. In data set [1] (PO, 10 mg/kg, whole blood), the T1/2 was 31.2 ± 10.8 min. The AUC(0-t) amounted to 572 ng·h/mL in data set [1] (setting [3]) and 3040 ng·h/mL in data set [1] (setting [5]). For the same compound, in data set [1] (setting [3]), the clearance stood at 29.3 mL/min/kg. The Cmax in data set [1] (setting [4]) is 862 ng/mL; in data set [1] (setting [6]), 5920 ng/mL. Also, the half-life in data set [1] (setting [5]) is 31.2 min.
